Patent US6811993B2, “Diagnostic and screening methods based on monocyte PKC activity” (Joslin Diabetes Center, Inc., priority 2000, dated 2004)

Test system: PKC
Assay: PKC activity in mononuclear cells of STZ-induced diabetic rats after treatment
Assay type: in vivo, rat
Details: male Sprague-Dawley rats, STZ-induced diabetes (56% increase vs control), insulin pellet inserted subcutaneously, after 2 weeks
Experimental: Monocytes of rats and also human control subjects and patients with diabetes were isolated from blood with anticoagulant of sodium citrate. The blood sample was put onto the same volume of Histopaque-1077 (Sigma) and centrifuged at 400×g for 30 minutes at room temperature. The layer containing mononuclear cells was transferred to a new tube and washed with phosphate-buffered saline (PBS). After centrifugation at 400×g for 10 minutes, cell pellet was suspended with a solution of 144 mM NH4Cl and 17 mM Tris-HCl, pH 7.65 to lyse the contaminated red blood cells. Mononuclear cells were washed with PBS and used in this study.
Mononuclear cells of human and rats and retina of rats were suspended in a buffer containing 137 mM NaCl, 4.3 mM KCl, […] Na2HPO4, 0.4 mM KH2PO4, 5.5 mM D-Glucose, 10 mM MgCl2, 1 mM CaCl2, 25 mM β-glycerophosphate, and 20 mM HEPES, pH 7.2. […] The paper was put into a scientillation vial and radioactivity of ^32p was assayed by scientillation counter. The paper was put into a scintillation vial and radioactivity of ^32p incorporated into substrate peptide per minute per mg of protein, and calculated by the difference between the activity in the presence of substrate peptide and the activity in the absence of the peptide.
Male Sprague-Dawley rats at the age of 6 weeks were used in this study. […] PKC activity in these tissues was measured as described below.

insulin
PKC activity in rat mononuclear cells: restored to the level of control rats
